In patent US8299055B2, “8-substituted isoquinoline derivative and the use thereof” (Asahi Kasei Pharma Corporation, priority 2008, dated 2012):

System: mouse collagen-induced arthritis model
Experiment: Mouse collagen-induced arthritis model
Format: in vivo
Description: On Days 0 and 21, […] of chicken cartilage-derived collagen (Nippon Meat Packers, Inc., Japan) in 0.1 mL of complete Freund's adjuvant (Difco Laboratories, Inc., U.S.) was subcutaneously injected to female DBA/1J Jms Slc mice (6- to 8-week-old) (Japan SLC, Japan) to immunize the mice.
Among the compounds of the present invention, a representative test compound (Example compound 1-N-6 or 2-N-100) was orally administered twice daily every day from Day 21 to Day 34 at a dose of 25 or 50 mg/kg (method A) or from Day 21 to Day 29 at a dose of 1, 3, 10, or 30 mg/kg (method B). The solution for administration was prepared by using 0.5% w/v Methylcellulose 400 Solution (Wako Pure Chemical Industries, Ltd.) as a solvent.
After administration of collagen on Day 21, the extent of development of arthritis in the mouse limbs were scored by visually observing each limb periodically according to the clinical scores outlined in Table X-1.
The clinical scores for all four limbs were summed up for each mouse and the mean±standard error (SE) of each treatment group was calculated. Evaluation was performed until the following day of the final administration.

| SMILES | toxicity (method A: oral twice daily Day 21 to Day 34, 25 or 50 mg/kg) | onset of arthritis (clinical scores) (method A: oral twice daily Day 21 to Day 34, 25 or 50 mg/kg, FIG. 1) | toxicity (method B: oral twice daily Day 21 to Day 29, 1, 3, 10 or 30 mg/kg) | onset of arthritis (clinical scores) (method B: oral twice daily Day 21 to Day 29, 1, 3, 10 or 30 mg/kg, FIG. 2) |
| --- | --- | --- | --- | --- |
| N#Cc1cccc(-c2cc(N3CCNCC3)c3cnccc3c2)c1 [Example 1-N-6] | did not exhibit toxicity | suppressed the onset of arthritis | – | – |
| Cc1ccc(C(=O)N2CCC(Nc3cc(-c4cccc(C#N)c4)cc4ccncc34)CC2)cn1 [Example 2-N-100] | – | – | did not exhibit toxicity | suppressed the onset of arthritis |
